Data set [1] concerns Sprague-Dawley rats, pilocarpine-induced status epilepticus. Briefly: Pilocarpine-induced status epilepticus (SE) model. Format: in vivo, rat. The protocol: Young adult (175–200 g) male Sprague-Dawley rats from Charles River (Wilmington, MA, US) were divided into four MTA treatment groups, with 9–11 rats per group. In group A, rats were subjected to pilocarpine-induced status epilepticus (SE) as described previously. Following 90 min of continuous seizure activity, SE was stopped by administering a single dose of diazepam (10 mg/kg). The rats were then injected daily for 3 days with either the vehicle alone (2% DMSO in H2O), injecting a volume of body weight x 3.3 (a similar volume as for the MTA treated groups), or MTA (30 mg/kg). Rats were euthanized on day 4 after SE under anesthesia by transcardiac perfusion with 4% paraformaldehyde (PFA) in phosphate-buffered saline. The brains were removed, postfixed in 4% PFA, cryoprotected in 30% sucrose, frozen, and sectioned for histology. In group B, the rats received the same treatment as those in group A (vehicle or MTA 30 mg/kg) except that the rats were perfused on day 30 after SE and a 0,37% sulphide fixative was used for subsequent Timm staining. In group C, the rats were only treated with MTA (30 mg/kg) or the vehicle for 2 days and on the third day, the rats were again subjected to pilocarpine-induced SE. The animals were then treated once daily with MTA (30 mg/kg) or vehicle for a further 3 days, and they were anesthetized and euthanized 4 days after SE. […]
Mouse and rat coronal sections were mounted on glass slides in a 0.2% solution of gelatin in 0.05 M Trizma base [pH 7.6] […] To evaluate sprouting of the zinc-containing mossy fibers in the dentate gyrus inner molecular layer, Timm-stained sections were analyzed by an examiner blinded to experimental condition. […] Twelve samples of pixel density/section were measured in the inner molecular layer using NIH ImageJ, 5 from the lower blade, 5 from the upper blade and 2 from the apex. The average background level (mean of 12 samples/section) was subtracted and a mean pixel density calculated for each animal (n = 4–5/group). […]

Data set [2] concerns primary rat oligodendrocyte (OL) cultures. Briefly: AMPA excitotoxicity in primary oligodendrocytes, calcein-AM viability. As to conditions: MTA 100 and 300 µM pre-incubated 15 min, viability 24 h after AMPA. The format is cell-based. On the procedure: Primary rat oligodendrocyte (OL) cultures were derived from the optic nerve of 12-day-old Sprague-Dawley rats, as described previously. Cells were seeded onto 12 mm diameter coverslips coated with poly-D-lysine (10 µg/ml) in 24-well plates at a density of 5×10^3 cells per well. The cells were maintained at 37°C in 5% CO2 and in a chemically defined medium. After 2–4 days in vitro, the cultures were composed of at least 98% O4/galactocerebroside-positive (O4/GalC) cells, while the majority of the remaining cells were stained with antibodies against glial fibrillary acidic protein (GFAP). No A2B5^+ or microglial cells were detected in these cultures.
For a-amino-3-hydroxy-5-methyl-4-isoxazolepropionic acid (AMPA) assays in primary rat OLs, cells were pre-incubated with MTA (100 µM and 300 µM) for 15 min and then exposed to AMPA (10 µM) for an additional period of 15 min. Cell viability was assessed with calcein-AM (Invitrogen) 24 h after application of AMPA, and the number of survival cells on each coverslip was detected by their fluorescence (515 nm filter) and quantified.

Data set [3] in a line: Parallel artificial membrane permeability assay (PAMPA), BBB model, passive diffusion. The format is in vitro ADME. The protocol: The PAMPA assay was used to determine the capacity of compounds to cross a blood brain barrier (BBB) model by passive diffusion, measuring the effective permeability of the compounds at an initial concentration of 200 µM. The buffer solution was prepared from a concentrated commercial solution (Pion, Billerica, MA, US) according to the manufacturer's instructions and the pH was adjusted to 7.4 with 0.5 M NaOH. The compound of interest was dissolved in the buffer solution (200 µM), the PAMPA sandwich was separated and the donor well was filled with 195 µL of the compound of interest. The acceptor plate and donor plate were brought together, with the underside of the membrane in contact with the buffer. An 4 µL aliquot of the phospholipid mixture (20 mg/ml) in dodecane was added to the filter of each well, and then 200 µL of buffer solution was added to each acceptor well. The plate was covered and incubated for 4 h at RT in a saturated humidity atmosphere with agitation and with 25 µm of an unstirred water layer in the Gut-Box (Pion). After 4 h, a 150 µL/well sample from the donor plate and a 150 µL/well sample from the acceptor plate were transferred to HPLC vials. Then, 100 µL from acceptor well, 5 µL from the donor well and 5 µL from the t0 samples were injected into an HPLC reverse-phase symmetry C18 column (150 mm×4.6 mm×5 µm, 100 Å; Waters). Transport was confirmed by HPLC mass spectrometry and matrix-assisted laser desorption/ionization time-of-flight (MALDI-TOF) spectrometry to ensure the compound had maintained its integrity. The phospholipid mixture used was a porcine polar brain lipid extract composed of 12.6% phosphatidylcholine (PC), 33.1% phosphatidylethanolamine (PE), 18.5% phosphatidylserine (PS), 4.1% phosphatidylinositol (PI), 0.8% phosphatidic acid and 30.9% of other compounds.
For orientation: In PAMPA a lipid-coated filter parts donor from acceptor wells.

Marks after values point to notes of the source that are not given here.

On to 5′-deoxy-5′-methylthioadenosine [MTA], for which, in data set [1] (MTA 30 mg/kg pre-SE or post-SE, 30 days after SE), the “mossy fiber sprouting (Timm staining)” value is listed as “No difference”. The “neurodegeneration and neuronal loss in hippocampal areas (NeuN immunoreactivity)” value in data set [1] (MTA 30 mg/kg/day before or after SE, early (3-5 days) and late (30 days) time points) is “reduced the neurodegeneration and neuronal loss”. Moreover, in data set [1] (MTA 30 mg/kg/day prior to SE, 30 days after SE), the “neuronal loss in the CA3 and CA1 hippocampal areas (stereological counting of NeuN-immunoreactive cells)” value was “significant reductions”. Further, the “protection of OLs against AMPA toxicity (calcein-AM)” value in data set [2] is given as “fully protected”. Further, in data set [3], the Membrane retention entry was “negligible” and the “effective permeability in PAMPA (in words)” value is “low to intermediate effective permeability”. Besides, in data set [3] (200 µM, pH 7.4, 4 h at RT), the “% Membrane retention” value was 0% and the “Pe x 10^−6 (cm/s)” value is listed as 0.15 ^* x 10^−6 cm/s.

Source of the values: publication PMC3944389, “Differential Neuroprotective Effects of 5′-Deoxy-5′-Methylthioadenosine” (PLoS ONE, 2014).
